Drawing on the METLIN SMRT retention time set (Domingo-Almenara et al. 2019), this text covers RP-LC retention time for 80 molecules.

The series in a line: gradient 5% acetonitrile 3 min, to 50% in 2 min, to 85% in 15 min, held 3 min, 100 µL/min. Particulars: column: Zorbax Extend-C18 2.1 x 50 mm; eluents: water / acetonitrile, 0.1% formic acid. In short, it runs like this:
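Each retention time is based on an adduct peak selected computationally and verified by manual inspection. Measurements used HPLC–quadrupole time-of-flight mass spectrometry in positive and negative ionization mode on mixtures of ~100 pure standards. Chromatography ran on a Zorbax Extend-C18 column (2.1 × 50 mm, 1.8 μm) at 100 μL/min with water and acetonitrile, each containing 0.1% formic acid, and dead and dwell volumes of 40 μL and 900 μL.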
`CC(C)C(=O)Nc1ccc(-n2cnc(C(=O)N3CCN(Cc4ccccc4)CC3)c2)nc1` registered an RP-LC retention time of 608 s.
In the case of `CCc1nnc(-c2cc(C)n(CC(=O)Nc3cc(C)ccc3C)c2C)o1`, the RP-LC retention time turned out to be 789 s.
The molecule `Cc1cccc(CC(=O)NCCSc2ncc(-c3ccccc3)[nH]2)c1` showed an RP-LC retention time of 607 s.
`Cc1ccc(CN2CCC(CNC(=O)C3CCCN(c4cc(=O)n(C)c(=O)n4C)C3)CC2)cc1` (stereo not given) displayed an RP-LC retention time of 602 s.
Consider `CCCn1c(=O)c2cc(C(=O)NCc3ccc(F)cc3Cl)nn2c2ccccc21`, for which the RP-LC retention time turned out to be 834 s.
Regarding `Cc1ccc(S(=O)(=O)N2CCN(c3cc(C)nc(NC4CCCCC4)n3)CC2)cc1`, the RP-LC retention time was 811 s.
For the molecule `Cc1ccc(C)c(NC(=O)CSc2ccc(N3CCCC(C(=O)NC4CC4)C3)nn2)c1` (stereo not given), the RP-LC retention time amounted to 681 s.
The same measure for `COc1cccc(S(=O)(=O)N2CCC(Cc3nncn3C)CC2)c1`: 641 s.
Take `Cc1ccc(CNS(=O)(=O)c2cc(-c3nc(C(C)(C)C)cs3)cs2)cc1C`: the RP-LC retention time came to 1350 s.
For `Cc1ccc(C)c(-c2coc(-c3ccc(NC(=O)CC(C)C)cc3)n2)c1`, the RP-LC retention time came out at 1260 s.
`CCOc1cc(=O)n2c(c1C(=O)N1CCCCCC1)CCCCC2`: the RP-LC retention time was 703 s.
For `COCCn1cc2c3c(cccc31)CN(C(=O)c1cccc(Cl)c1)CC2`, the RP-LC retention time was 960 s.
Turning to `O=C(c1cc(Cc2n[nH]c(=O)c3ccccc23)ccc1F)N1CCN(C(=O)C2CC2)CC1`, the RP-LC retention time is 717 s.
`Nc1nc(N)c2ncn(-c3ccccc3)c2n1` came in with an RP-LC retention time of 584 s.
With `O=C(CSc1ccc(F)cc1)Nc1nnc(COc2ccccc2)o1`, the RP-LC retention time is 790 s.
The molecule `CCc1cc(=O)n(CC(=O)N2CCc3ccccc32)c(N)n1` gave an RP-LC retention time of 627 s.
On to `CC1CCN(C(=O)Cn2c(=O)c3cccn3c3ccc(F)cc32)CC1`, for which the RP-LC retention time worked out at 855 s.
The same measure for `CCOC(=O)C1CCN(c2cc(-n3nc(C)cc3C)ncn2)CC1`: 1000 s.
In turn, `CCc1ccc(Nc2c(C(=O)N3CCCCC3C)cnc3nc(C)ccc23)cc1` (stereo not given) had an RP-LC retention time of 674 s.
`CCCCNC(=O)C1CCCN(C(=O)c2[nH]c(C)c(C(=O)OC)c2C)C1` (stereo not given): the RP-LC retention time was 692 s.
For `O=C(c1cccc(Nc2nc3ccccc3n3nnnc23)c1)N1CCN(c2ccccn2)CC1`, the RP-LC retention time is 655 s.
In the case of `Cn1c(C(=O)NCCN2CCCCCC2)cc2c(-c3cccs3)nn(-c3ccccc3)c21`, the RP-LC retention time was 782 s.
On to `Cc1ccc2c(C(=O)NCc3ccccc3Cl)cc(NC(=O)C(C)C)cc2n1`, for which the RP-LC retention time was determined as 674 s.
As to `Cn1cnnc1SCC(=O)N1CCCc2ccccc21`, the RP-LC retention time stood at 636 s.
The molecule `Cc1ccc(CNS(=O)(=O)c2ccc3c(c2)C(=O)N(C)c2ncccc2O3)cc1` returned an RP-LC retention time of 932 s.
In the case of `Cc1ccc(Cn2nc3ccc(S(=O)(=O)N4CCCCC4)cn3c2=O)cc1C`, the RP-LC retention time stood at 1020 s.
Turning to `COc1ccccc1CN1CCC(CNS(=O)(=O)c2ccc3c(c2)CCCC(=O)N3)CC1`, the RP-LC retention time is 566 s.
Take `Cn1c(=O)c2cc(C(=O)Nc3ccc4c(c3)OCCO4)cnc2n(-c2ccccc2)c1=O`: the RP-LC retention time came to 842 s.
On to `CCCN1CCN(C(=O)c2nc3ccccn3c2-c2ccsc2)CC1`, for which the RP-LC retention time was determined as 576 s.
The same measure for `CNC(=O)c1nc(C(=O)NCCc2ccc(OC)c(OC)c2)cs1`: 623 s.
The molecule `Cc1ccccc1NC(=O)CC1COc2ccccc2NC1=O` (stereo not given) had an RP-LC retention time of 700 s.
Take `CCOc1ccc(NS(=O)(=O)c2cc(C(=O)N3CCN(c4ccccn4)CC3)n[nH]2)cc1`: the RP-LC retention time is 619 s.
`COc1ccc(CC(=O)Nc2nnc(SCC(=O)NC3=NCCS3)s2)cc1` displayed an RP-LC retention time of 682 s.
As for `COCC(=O)NC1CCC12CCN(S(=O)(=O)c1c(C)noc1C)CC2` (stereo not given), the RP-LC retention time is 740 s.
In turn, `O=C(CN1CC=C(c2cnn(-c3ccccc3)c2)CC1)NC1CCCCCC1` returned an RP-LC retention time of 702 s.
Molecule `COCCCNC(=O)c1ccc(-c2nc3cccnc3n(C3CCCC3)c2=O)cc1` displayed an RP-LC retention time of 867 s.
With `COc1ccccc1-c1cc(C(=O)N2CCCN(c3ccc(=O)n(-c4ccccc4)n3)CC2)[nH]n1`, the RP-LC retention time was found to be 750 s.
`O=C(NCCCN1CCCC1=O)c1csc(N2CCN(c3ccc(F)cc3)CC2)n1`: the RP-LC retention time came to 714 s.
The same measure for `Cc1noc(CNC(=O)C2CCN(S(=O)(=O)c3cccs3)CC2)n1`: 646 s; for `CCCc1nc(-c2ccccc2)oc1CC(=O)Nc1ccc(Cl)cc1C`: 1090 s; for `CN(C)c1cccc(C(=O)NCC2CCN(C(=O)Oc3ccccc3)CC2)c1`: 723 s.
With `CC(=O)c1ccc(NC(=O)Cn2nc3c4cc(-c5ccc(Cl)cc5)nn4ccn3c2=O)cc1` the figure was 894 s.
The same measure for `CCN1CCN(CCNC(=O)c2cc(-c3ccc(C)cc3)cn2C)CC1`: 626 s; for `Cc1ccc(-c2cc3n(n2)CCCN(C(=O)c2ccc(C)s2)C3)cc1`: 948 s.
For the molecule `CCCNC(=O)c1c2c(nc3ccc(C)cc13)CCC2`, the RP-LC retention time was 625 s.
`Cc1ccc2c(=O)c3cccc(CC(=O)O)c3oc2c1C` gave an RP-LC retention time of 860 s.
Turning to `COc1ccc(C2CC(=O)c3c(C)nc(N4CCN(c5ccccn5)CC4)nc3C2)c(OC)c1` (stereo not given), the RP-LC retention time stood at 765 s.
On to `O=C(Cn1nc2c3cc(-c4ccccc4)nn3ccn2c1=O)NC1CCCCC1`, for which the RP-LC retention time was determined as 873 s.
Consider `COc1ccc(Nc2nc(C(=O)N3c4ccccc4CC3C)cs2)cc1OC` (stereo not given), for which the RP-LC retention time came out at 854 s.
In the case of `Cc1cc(C(=O)N2CCCCC2)c2c(=O)n(CC(=O)Nc3cc(F)ccc3F)c(=O)n(C)c2n1`, the RP-LC retention time stood at 837 s.
Turning to `COc1ccc(OC)c(NC(=O)Nc2c(-c3cccc(C)c3)nc3ccccn23)c1`, the RP-LC retention time is 696 s.
The same measure for `O=C(Cc1cccs1)N1CCCC1c1cccc(F)c1` (stereo not given): 817 s.
With `O=C(Nc1cccc2c1N(C(=O)c1ccco1)CCC2)c1ccco1` the figure was 784 s; with `Cc1ccc(S(=O)(=O)N2CCC(n3cnnc3C3CC3)CC2)cc1Cl`, 809 s; with `COC(=O)c1cccc(Nc2c(-c3ccc(N(C)C)cc3)nc3cnccn23)c1`, 776 s.
`Cn1c(CN2CCN(C(=O)Cc3ccc(Cl)cc3)CC2)nc2cc(C(=O)N3CCCC3)ccc21` gave an RP-LC retention time of 646 s.
With `Cc1ccc(C)c(NC(=O)c2cn(-c3ncccc3-c3nc(C(C)C)no3)cn2)c1`, the RP-LC retention time was 1010 s.
With `Cc1ccc(-n2nc3c(=O)n(CCCC(=O)NC4CCCC4)nc(C)c3c2C)cc1` the figure was 797 s; with `CC(C)NC(=O)c1cc2nc(N(C)C)n(-c3ccc(F)cc3)c2s1`, 627 s.
Turning to `CC(NC(=O)C1CCCN(c2nc3ccsc3c(=O)n2Cc2ccccc2)C1)c1ccc(F)cc1` (stereo not given), the RP-LC retention time worked out at 951 s.
The same measure for `CN1C(=O)[C@H]2CN(Cc3cn[nH]c3-c3cccc(Br)c3)C[C@H]2C1=O`: 612 s.
As to `COc1ccc(OC)c(NC(=O)N2CCCC(Cn3cnc4cccnc43)C2)c1` (stereo not given), the RP-LC retention time came to 682 s.
The molecule `CC(Cc1cccs1)NS(=O)(=O)c1ccc2c(c1)OCCO2` (stereo not given) registered an RP-LC retention time of 840 s.
`CCOc1cc(C(=O)Nc2c(-c3ccc(F)cc3)nc3cc(C)ccn23)cc(OCC)c1OCC` returned an RP-LC retention time of 819 s.
Regarding `O=S(=O)(Nc1cccc(-c2cn3ccccc3n2)c1)c1ccc(Br)cc1`, the RP-LC retention time was 673 s.
In turn, `CCNc1nc(C)cc(N2CCN(S(=O)(=O)c3cc(Cl)ccc3Cl)CC2)n1` registered an RP-LC retention time of 776 s.
Take `COc1cccc(CNC(=O)C2CCCN(c3cc(=O)n(C)c(=O)n3C)C2)c1` (stereo not given): the RP-LC retention time stood at 670 s.
As to `O=C(O)c1ccc(S(=O)(=O)N2CCc3ccccc3C2)cc1`, the RP-LC retention time was determined as 773 s.
As to `CCCOc1ccccc1C(=O)Nc1nonc1-c1ccccc1`, the RP-LC retention time came to 991 s.
Take `COc1ccc(-c2nc3cnccn3c2NCCC(=O)NC(C)C)cc1`: the RP-LC retention time was determined as 609 s.
For the molecule `CCc1nc(-c2csc(S(=O)(=O)N3CCC(C(=O)NCc4ccccc4)CC3)c2)no1`, the RP-LC retention time is 702 s.
On to `O=C(Nc1ccc2c(c1)CCCN2C(=O)C1CC1)c1ccccc1[N+](=O)[O-]`, for which the RP-LC retention time was 716 s.
The same measure for `Cc1cc(C(=O)Nc2cccc(F)c2)nc2ccnn12`: 889 s; for `Cc1cc2[nH]c(C(=O)Nc3ccc(Cl)cc3C)c(CN(C)C)c2s1`: 704 s.
Consider `O=c1n(Cc2ccccc2F)nc2ccc(S(=O)(=O)N3CCc4ccccc4C3)cn12`, for which the RP-LC retention time was 984 s.
For `CCCc1ccc(S(=O)(=O)N2CCN(c3cnn4c(C5CC5)nnc4c3)CC2)cc1`, the RP-LC retention time stood at 856 s.
The same measure for `Cc1cccc(-c2noc(-c3nn(CC(=O)NCc4cccs4)c4ccccc34)n2)c1`: 1140 s.
`O=C(COc1ccc(Cl)cc1)Nc1nnc(Cc2cccs2)o1` yielded an RP-LC retention time of 796 s.
The same measure for `N#Cc1cccc2sc(C(=O)N=C(N)N)cc12`: 625 s; for `COCC(C)(O)CNC(=O)c1ccsc1` (stereo not given): 581 s.
